Results as given in ChEMBL document CHEMBL1201862, “PubChem BioAssay data set” (2004).
Active and inactive are the calls of the source.

How the values were obtained:
Vero [1] = assay: cells; format: functional, cell-based; conditions: Chlorocebus sabaeus
[2] = biological target: T1, High affinity choline transporter 1 (Homo sapiens, UniProt Q9GZV3); assay: human choline transporter blockers, potency – cell-based, 5-point CRC, membrane potential dye, dose response (AID 504840); format: functional
T1 sequence (Q9GZV3 whole entry): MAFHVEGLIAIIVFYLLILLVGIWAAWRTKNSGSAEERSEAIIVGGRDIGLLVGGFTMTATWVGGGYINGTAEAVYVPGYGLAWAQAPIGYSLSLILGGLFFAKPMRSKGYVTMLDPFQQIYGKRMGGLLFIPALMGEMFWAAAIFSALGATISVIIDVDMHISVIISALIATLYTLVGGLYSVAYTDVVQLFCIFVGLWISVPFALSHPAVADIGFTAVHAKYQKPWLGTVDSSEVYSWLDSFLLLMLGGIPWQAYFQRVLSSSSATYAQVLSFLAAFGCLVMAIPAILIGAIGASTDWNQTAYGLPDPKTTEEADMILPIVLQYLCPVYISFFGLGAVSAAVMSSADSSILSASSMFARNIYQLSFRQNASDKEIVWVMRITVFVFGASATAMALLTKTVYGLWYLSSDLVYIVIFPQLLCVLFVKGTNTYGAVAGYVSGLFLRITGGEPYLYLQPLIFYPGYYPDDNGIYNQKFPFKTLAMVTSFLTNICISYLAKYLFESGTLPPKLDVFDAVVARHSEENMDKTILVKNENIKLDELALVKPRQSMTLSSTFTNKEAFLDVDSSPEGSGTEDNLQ

Vero [3] = assay: cells; format: functional; conditions: Chlorocebus sabaeus
[4] = biological target: T2, Short transient receptor potential channel 4 (Mus musculus, UniProt Q9QUQ5); assay: calcium entry via TRPC4 opening agents – cell-based, HEK293 TRPC4/mu-opioid, Fluo-4 calcium, dose response (AID 434937); format: functional
T2 sequence (Q9QUQ5 whole entry): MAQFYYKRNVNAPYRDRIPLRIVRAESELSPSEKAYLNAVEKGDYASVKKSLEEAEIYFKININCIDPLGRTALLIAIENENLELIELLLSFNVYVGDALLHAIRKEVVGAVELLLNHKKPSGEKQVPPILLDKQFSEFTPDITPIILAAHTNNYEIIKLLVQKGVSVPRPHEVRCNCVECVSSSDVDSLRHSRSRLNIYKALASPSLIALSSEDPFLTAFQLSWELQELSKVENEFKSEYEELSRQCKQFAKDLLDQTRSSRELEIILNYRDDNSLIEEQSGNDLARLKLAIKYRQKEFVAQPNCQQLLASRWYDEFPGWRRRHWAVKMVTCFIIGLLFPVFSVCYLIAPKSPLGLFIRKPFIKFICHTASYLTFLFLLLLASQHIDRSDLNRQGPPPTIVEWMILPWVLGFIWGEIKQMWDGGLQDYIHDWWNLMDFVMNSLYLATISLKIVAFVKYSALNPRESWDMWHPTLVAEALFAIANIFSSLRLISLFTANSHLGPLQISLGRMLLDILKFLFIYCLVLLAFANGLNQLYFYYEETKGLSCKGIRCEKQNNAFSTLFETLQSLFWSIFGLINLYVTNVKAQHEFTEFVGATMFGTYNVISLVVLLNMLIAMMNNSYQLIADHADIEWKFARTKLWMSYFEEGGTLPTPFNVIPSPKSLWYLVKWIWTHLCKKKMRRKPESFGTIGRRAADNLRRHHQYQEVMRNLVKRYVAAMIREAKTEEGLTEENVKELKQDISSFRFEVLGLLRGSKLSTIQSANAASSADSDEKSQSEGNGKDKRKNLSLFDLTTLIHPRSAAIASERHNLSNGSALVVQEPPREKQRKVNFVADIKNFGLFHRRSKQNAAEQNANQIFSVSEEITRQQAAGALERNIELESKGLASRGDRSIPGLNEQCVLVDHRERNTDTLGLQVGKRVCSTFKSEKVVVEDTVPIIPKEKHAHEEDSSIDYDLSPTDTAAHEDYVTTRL

[5] = biological target: Heat shock protein HSP 90-alpha (Homo sapiens, UniProt P07900); format: functional, organism-based
Leucine aminopeptidase = biological target: T3, Leucine aminopeptidase (Plasmodium falciparum 3D7, UniProt Q8IL11); assay: P. falciparum M17LAP inhibitors, primary screen, biochemical, fluorogenic H-Leu-NHMec substrate, 1536-well (AID 1619); format: functional
T3 sequence (Q8IL11 whole entry): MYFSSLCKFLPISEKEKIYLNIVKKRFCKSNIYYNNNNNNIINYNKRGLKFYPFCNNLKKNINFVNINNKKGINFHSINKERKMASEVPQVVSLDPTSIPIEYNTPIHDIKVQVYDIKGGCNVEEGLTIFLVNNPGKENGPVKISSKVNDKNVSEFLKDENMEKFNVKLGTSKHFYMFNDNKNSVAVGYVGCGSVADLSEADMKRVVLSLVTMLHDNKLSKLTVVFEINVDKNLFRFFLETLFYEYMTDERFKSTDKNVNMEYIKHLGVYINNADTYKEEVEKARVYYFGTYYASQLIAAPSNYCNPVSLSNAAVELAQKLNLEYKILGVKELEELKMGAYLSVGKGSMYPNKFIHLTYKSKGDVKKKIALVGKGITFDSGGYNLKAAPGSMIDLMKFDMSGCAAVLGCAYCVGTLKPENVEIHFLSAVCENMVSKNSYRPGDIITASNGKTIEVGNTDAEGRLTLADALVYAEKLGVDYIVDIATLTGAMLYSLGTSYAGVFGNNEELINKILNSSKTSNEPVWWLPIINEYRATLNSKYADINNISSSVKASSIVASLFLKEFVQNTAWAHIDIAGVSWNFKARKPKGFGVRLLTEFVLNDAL

[6] = NIH-3T3 fibroblast cytotoxicity, dose response, cytotoxicity control, cell-based, fluorescence, Alamar Blue, secondary assay (AID 2327); format: functional;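 note: NIH-3T3 mouse fibroblasts cultured with fluconazole at 8 µg/mL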
[7] = fluconazole-exposed Candida albicans growth modulators – fluorescence, retest, confirmation (AID 2467); format: functional, cell-based
Genome polyprotein = Genome polyprotein (dengue virus type 2, UniProt P29990); assay: flavivirus cap methylation enzyme inhibition – biochemical, confirmation dose response, primary screen (AID 588689); format: functional
Sequence of Genome polyprotein (P29990 2492-3391 limits assumed): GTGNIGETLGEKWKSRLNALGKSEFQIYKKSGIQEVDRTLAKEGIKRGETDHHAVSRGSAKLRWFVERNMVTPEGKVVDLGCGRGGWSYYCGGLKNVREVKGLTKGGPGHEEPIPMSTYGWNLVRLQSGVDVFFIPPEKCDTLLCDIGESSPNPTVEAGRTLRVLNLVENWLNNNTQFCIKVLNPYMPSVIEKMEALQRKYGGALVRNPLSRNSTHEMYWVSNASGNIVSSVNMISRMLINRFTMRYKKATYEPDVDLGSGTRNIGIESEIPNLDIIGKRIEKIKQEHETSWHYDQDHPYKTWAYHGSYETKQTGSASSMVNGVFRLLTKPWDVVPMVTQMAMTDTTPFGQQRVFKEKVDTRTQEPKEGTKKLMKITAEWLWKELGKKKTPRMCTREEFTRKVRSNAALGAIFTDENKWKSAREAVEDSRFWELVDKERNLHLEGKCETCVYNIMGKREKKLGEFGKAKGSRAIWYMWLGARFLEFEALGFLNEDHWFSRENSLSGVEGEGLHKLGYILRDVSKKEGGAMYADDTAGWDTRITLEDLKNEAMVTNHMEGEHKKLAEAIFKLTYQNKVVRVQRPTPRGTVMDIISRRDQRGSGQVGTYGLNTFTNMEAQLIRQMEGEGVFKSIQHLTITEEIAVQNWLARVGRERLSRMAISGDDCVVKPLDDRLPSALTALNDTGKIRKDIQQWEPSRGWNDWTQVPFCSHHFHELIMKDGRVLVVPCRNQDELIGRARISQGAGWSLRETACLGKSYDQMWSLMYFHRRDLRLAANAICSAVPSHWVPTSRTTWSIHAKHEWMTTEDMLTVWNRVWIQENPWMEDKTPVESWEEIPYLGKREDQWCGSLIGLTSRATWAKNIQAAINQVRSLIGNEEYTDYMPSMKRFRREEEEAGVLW

Vero [8] = assay: viability of Vero cells under compound – cytotoxicity control for flavivirus capping enzyme inhibitors (AID 588742); format: functional; conditions: Chlorocebus sabaeus
[9] = MIN6 cell viability loss – mouse insulinoma, cytotoxicity control, dose response (AID 2122); format: functional;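 note: confirmatory high-throughput counterscreen run to flag cytotoxic compounds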
[10] = biological target: T4, Polyadenylate-binding protein 1 (Homo sapiens, UniProt P11940); assay: MLLE binding blockers, Cy5 peptide tracer – biochemical, fluorescence polarization, Cy5-PAM2 peptide, secondary, miRNA deadenylation inhibitor project, dose response (AID 602260); format: functional; conditions: read-out: IC50_Mean
T4 sequence (P11940 whole entry): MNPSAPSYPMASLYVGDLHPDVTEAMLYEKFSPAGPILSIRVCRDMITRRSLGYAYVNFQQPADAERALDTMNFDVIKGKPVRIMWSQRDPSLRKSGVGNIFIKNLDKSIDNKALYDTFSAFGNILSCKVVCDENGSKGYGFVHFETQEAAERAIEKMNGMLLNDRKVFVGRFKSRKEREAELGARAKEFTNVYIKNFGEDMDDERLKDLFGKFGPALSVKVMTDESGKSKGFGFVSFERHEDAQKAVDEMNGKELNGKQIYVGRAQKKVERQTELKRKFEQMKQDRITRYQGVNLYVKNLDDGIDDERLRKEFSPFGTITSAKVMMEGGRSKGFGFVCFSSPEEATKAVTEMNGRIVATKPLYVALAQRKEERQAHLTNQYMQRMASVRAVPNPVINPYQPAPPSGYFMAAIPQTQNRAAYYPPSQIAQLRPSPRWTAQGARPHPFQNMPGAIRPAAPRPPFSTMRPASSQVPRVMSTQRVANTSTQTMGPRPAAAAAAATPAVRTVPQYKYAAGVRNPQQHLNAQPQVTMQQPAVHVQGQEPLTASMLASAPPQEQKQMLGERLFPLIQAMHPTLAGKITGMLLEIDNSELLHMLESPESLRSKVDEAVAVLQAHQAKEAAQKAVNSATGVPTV

[11] = NIH3T3 cell viability loss – ATP luminescence, mouse fibroblasts, counter-screen, dose response (AID 2010); format: functional, cell-based;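 note: cells exposed to compound for about 90 hours before reading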
[12] = Luminescence Cell-Based Dose Response HTS to Identify Inhibitors of 5'UTR Stem-Loop Driven Prion Protein mRNA Translation in H4 Neuroglioblastoma Cells. [Related pubchem assays: 1827 (Project Summary), 1813 (Primary HTS)]; format: functional
[13] = biological target: T4, Polyadenylate-binding protein 1; assay: MLLE domain peptide-binding blockers, IC50 – biochemical, fluorescence polarization, FITC-PAM2 peptide, dose response (AID 602259); format: functional; conditions: read-out: IC50_Mean
[14] = luciferase reporter signal suppression in cells – H4 neuroglioma cells, luminescence, dose response (AID 1990); format: functional, cell-based
[15] = decrease of insulin promoter-GFP reporter – imaging, high-content screening, mouse beta cells (AID 1628); format: functional; conditions: MIN6
[16] = alpha-synuclein stem-loop luciferase translation blockers – H4 neuroglioma cells, luminescence, confirmation (AID 1988); format: functional, cell-based
[17] = Trypanosoma cruzi growth suppression in host cells – NIH3T3 host cells, beta-gal luminescence, confirmation (AID 2044); format: functional, cell-based;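 note: intracellular parasites grown in NIH/3T3 mouse fibroblasts as host cells; luminescent beta-galactosidase reporter signal from transgenic T. cruzi replicating inside host cells; inhibitors lower the luminescence signal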
cells = format: functional
[18] = THP-1 cell cytotoxicity, dose response, cytotoxicity control for non-replicating M. tuberculosis project (AID 489025); format: functional
[19] = HepG2 cell cytotoxicity, dose response, cytotoxicity control for non-replicating M. tuberculosis project (AID 489018); format: functional; conditions: Mycobacterium tuberculosis
[20] = Vero E6 cell cytotoxicity, dose response, cytotoxicity control for non-replicating M. tuberculosis project, secondary assay (AID 492998); format: functional, VeroE6; conditions: Vero C1008
[21] = microbe, parasite or virus in culture; format: functional; conditions: Mycobacterium tuberculosis
[22] = biological target: T5, E3 ubiquitin-protein ligase XIAP (Homo sapiens, UniProt P98170); assay: small molecules displacing peptide from XIAP – biochemical, IAP family, fluorescence polarization (AID 1018); format: functional
T5 sequence (P98170 whole entry): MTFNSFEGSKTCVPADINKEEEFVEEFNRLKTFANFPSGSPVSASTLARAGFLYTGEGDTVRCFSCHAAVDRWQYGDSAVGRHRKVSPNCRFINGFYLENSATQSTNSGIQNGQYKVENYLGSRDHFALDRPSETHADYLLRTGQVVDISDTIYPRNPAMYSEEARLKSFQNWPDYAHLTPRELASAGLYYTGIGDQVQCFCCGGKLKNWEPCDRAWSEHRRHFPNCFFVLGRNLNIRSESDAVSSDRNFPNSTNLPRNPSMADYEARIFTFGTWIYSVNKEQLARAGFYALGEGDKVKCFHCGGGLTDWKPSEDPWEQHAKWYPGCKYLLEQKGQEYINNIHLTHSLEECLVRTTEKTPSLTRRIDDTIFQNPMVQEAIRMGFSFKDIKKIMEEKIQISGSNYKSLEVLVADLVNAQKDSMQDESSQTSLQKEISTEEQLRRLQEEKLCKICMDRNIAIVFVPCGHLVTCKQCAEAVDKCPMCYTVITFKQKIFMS

[23] = biological target: T5, E3 ubiquitin-protein ligase XIAP; assay: Counter Screen using XIAP-Bir3 for Chemical Antagonists of Bir1/2 domains of IAP-family anti-apoptotic proteins. [Related pubchem assays (depositor defined):AID1018, AID1449, AID1514, AID1638, AID1749, AID1750, AID488957, AID488963]
[24] = Luminescence Cell-Based Dose Confirmation HTS to Identify Activators of 5'UTR Stem-Loop Driven Alpha-Synuclein mRNA Translation in H4 Neuroglioblastoma Cells. [Related pubchem assays: 1829 (Project Summary), 1814 (Primary HTS)]; format: functional
H4 = assay: Luminescence Cell-Based Dose Response HTS to Identify Activators of 5'UTR Stem-Loop Driven Prion Protein mRNA Translation in H4 Neuroglioblastoma Cells. [Related pubchem assays: 1829 (Project Summary), 1814 (Primary HTS)]; format: functional; conditions: Homo sapiens
[25] = Luminescence Cell-Based Dose Response HTS to Identify Activators of Luciferase Translation or Activity in H4 […] Cells. [Related pubchem assays: 1829 (Project Summary), 1814 (Primary HTS)]; format: functional
Streptokinase A = biological target: T6, Streptokinase A (Streptococcus pyogenes serotype M1, UniProt P10520); assay: viability-normalized secreted streptokinase activity reduction – plasminogen activation absorbance, OD405, dose response (AID 1914); format: functional, Streptococcus pyogenes M1 GAS;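 note: secreted streptokinase activity via plasminogen activation per viability signal from cell pellet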
T6 sequence (P10520 whole entry): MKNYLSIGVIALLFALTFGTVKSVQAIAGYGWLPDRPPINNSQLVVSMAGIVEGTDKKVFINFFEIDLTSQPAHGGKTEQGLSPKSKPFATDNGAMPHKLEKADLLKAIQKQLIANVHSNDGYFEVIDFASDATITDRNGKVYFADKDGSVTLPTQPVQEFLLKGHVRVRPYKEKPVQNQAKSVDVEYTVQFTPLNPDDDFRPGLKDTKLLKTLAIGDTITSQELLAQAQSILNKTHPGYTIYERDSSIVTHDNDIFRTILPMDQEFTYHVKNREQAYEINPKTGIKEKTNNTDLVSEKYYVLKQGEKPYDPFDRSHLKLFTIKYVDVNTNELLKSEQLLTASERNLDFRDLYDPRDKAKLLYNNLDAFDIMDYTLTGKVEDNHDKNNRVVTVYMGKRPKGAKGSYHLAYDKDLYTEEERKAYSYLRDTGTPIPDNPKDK

[26] = tested on: Streptococcus sp. 'group A'; assay: Streptococcus pyogenes SK(-)GAS viability under kanamycin – luminescence, BacTiterGlo, confirmation, counter-screen for streptokinase expression inhibitor project, dose response (AID 1900); format: functional, organism-based
Streptococcus = assay: GAS UMAA2166 growth inhibition – luminescence, BacTiterGlo, counter-screen for streptokinase expression inhibitor project, dose response (AID 1915); format: functional, organism-based;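 note: potency for reduction of bacterial viability or growth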

Cc1cccc(C(=O)NC(=S)NNC(=O)Cc2ccccc2)c1
IC50 (Vero [1]): 22.7 µM (active) | IC50 [2]: 13.2 µM (active) | CC50 (Vero [3]): > 25 µM (active) | EC50 [4]: 4.22 µM (active) | AC50 [5]: 4.66 µM (active) | IC50 (Leucine aminopeptidase): 56.6 µM (active) | EC50 [6]: > 150 µM (inactive) | EC50 [7]: 1.14 µM (active)

O=C1c2ccc3c4c(ccc(c24)C(=O)N1CCCCO)C(=O)N(CCCCO)C3=O
IC50 (Genome polyprotein): > 100 µM (active) | CC50 (Vero [8]): 5.55 µM (active) | IC50 [9]: 1.99 µM (active) | IC50 [10]: > 66 µM (inactive) | EC50 [11]: 4.23 µM (active) | EC50 [12]: 13.6 µM (active) | IC50 [13]: 23.8 µM (inactive) | EC50 [14]: > 120 µM (not active) | IC50 [15]: 2.96 µM (active) | EC50 [16]: 3.4 µM (active) | EC50 [17]: 2.25 µM (active)

Cc1cccc(/C=C/c2onc(C)c2[N+](=O)[O-])n1
CC50 (Vero [3]): 13.8 µM (active) | IC50 (cells): 8.06 µM (active) | CC50 [18]: 7.76 µM (active) | CC50 [19]: > 20 µM (active) | CC50 [20]: 6.87 µM (active) | CC50 [21]: 14.3 µM (active)

O=C(NCc1cccs1)c1noc2c1CCCCC2
IC50 [22]: > 100 µM (not active) | IC50 [23]: > 100 µM (inactive)

Clc1ccc2sc(C3CCNCC3)nc2c1
EC50 [4]: 0.008 µM (active) | EC50 [24]: 141 nM (active) | EC50 (H4): 168 nM (active) | EC50 [25]: 42.4 µM (active)

Cc1ccccc1/N=C/C=C1\N(C)c2ccccc2C1(C)C
IC50 [9]: 5.61 µM (active) | IC50 [15]: 2.44 µM (active)

COc1ccc2[nH]c3c(N4CCN(Cc5ccc6c(c5)OCO6)CC4)ncnc3c2c1
IC50 [9]: 2.58 µM (active) | IC50 [15]: 2.79 µM (active)

Cc1cc(C)nc(N2CCCC(C(=O)Nc3cc(F)ccc3C)C2)n1 (centres undefined)
IC50 [22]: > 100 µM (not active) | IC50 [23]: > 100 µM (inactive)

O=C(N/N=C/c1cc([N+](=O)[O-])cc(Br)c1O)C12CC3CCC(CC(C3)C1)C2
EC50 (Streptokinase A): > 150 µM (not active) | CC50 (Vero [3]): > 25 µM (active) | EC50 [4]: 2.99 µM (active) | EC50 [26]: 4.67 µM (active) | EC50 (Streptococcus): 19.7 µM (active)

Cc1cc(CNC(=O)COc2ccccc2)c2ccccc2n1
IC50 [22]: > 100 µM (not active) | IC50 [23]: > 100 µM (inactive)
